± gives the standard deviation of the averaged measurements.
Assays:
Test in all cases: relative viability vs DMSO control (72 h) (fraction); higher = more viable cells
VA-ES-BJ = system: VA-ES-BJ
In short: (§1)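 After seeding at densities set for 80–90% confluence in 384-well plates, sarcoma cell lines waited 24 h before 2.5 µl of serially diluted compound was added. Source plates held 10 mM down to 0.0002 mM. Plates were incubated 72 h at 37 °C with 5% CO2, with 0.1% DMSO vehicle and a 5 µM positive control, and relative viability was taken from ATPLite as percent growth averaged over up to triplicate wells, with 1 set as full and 0 as none.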

SW982 = system: SW982
In short: as §1

SW684 = system: SW684
In short: as §1

G401 = system: G401
In short: as §1

A204 = system: A204
In short: as §1

KHOS-NP = system: KHOS-NP
In short: as §1

SK-ES-1 = system: SK-ES-1
In short: as §1

HS729 = system: HS729
In short: as §1

RD-ES = system: RD-ES
In short: as §1

SK-LMS-1 = system: SK-LMS-1
In short: as §1

HT1080 = system: HT1080
In short: as §1

SW872 = system: SW872
In short: as §1

CN(C)CCCOc1ccc(-c2ccc3ncc4c(c3c2)n(C2CCOCC2)c(=O)n4C)cn1 [AZD-0156]
Conditions	relative viability
A204, 0.00017 µM	1.08 ± 0.043
A204, 0.00051 µM	1.1 ± 0.033
A204, 0.00152 µM	1.07 ± 0.051
A204, 0.00457 µM	1.1 ± 0.041
A204, 0.01372 µM	1.04 ± 0.072
A204, 0.04115 µM	1.01 ± 0.089
A204, 0.1235 µM	0.919 ± 0.028
A204, 0.3704 µM	0.84 ± 0.055
A204, 1.111 µM	0.704 ± 0.025
A204, 3.333 µM	0.766 ± 0.15
A204, 10 µM	0.628 ± 0.068
G401, 0.00017 µM	1.08 ± 0.021
G401, 0.00051 µM	1.06 ± 0.035
G401, 0.00152 µM	1.06 ± 0.019
G401, 0.00457 µM	1.05 ± 0.02
G401, 0.01372 µM	1.06 ± 0.018
G401, 0.04115 µM	1.05 ± 0.025
G401, 0.1235 µM	1.03 ± 0.011
G401, 0.3704 µM	1.01 ± 0.045
G401, 1.111 µM	0.968 ± 0.031
G401, 3.333 µM	1.01 ± 0.029
G401, 10 µM	0.9515 ± 0.0055
HS729, 0.00017 µM	1 ± 0.026
HS729, 0.00051 µM	1.02 ± 0.03
HS729, 0.00152 µM	1.01 ± 0.019
HS729, 0.00457 µM	0.968 ± 0.026
HS729, 0.01372 µM	0.937 ± 0.068
HS729, 0.04115 µM	0.9191 ± 0.0091
HS729, 0.1235 µM	0.857 ± 0.031
HS729, 0.3704 µM	0.833 ± 0.028
HS729, 1.111 µM	0.766 ± 0.063
HS729, 3.333 µM	0.758 ± 0.05
HS729, 10 µM	0.519 ± 0.041
HT1080, 0.00017 µM	1.04 ± 0.038
HT1080, 0.00051 µM	1.1 ± 0.034
HT1080, 0.00152 µM	1.091 ± 0.0082
HT1080, 0.00457 µM	1.12 ± 0.036
HT1080, 0.01372 µM	1.09 ± 0.027
HT1080, 0.04115 µM	1.09 ± 0.021
HT1080, 0.1235 µM	1.07 ± 0.0059
HT1080, 0.3704 µM	1.06 ± 0.046
HT1080, 1.111 µM	1.09 ± 0.03
HT1080, 3.333 µM	1.11 ± 0.045
HT1080, 10 µM	1.026 ± 0.0073
KHOS-NP, 0.00017 µM	1.1 ± 0.017
KHOS-NP, 0.00051 µM	1.107 ± 0.01
KHOS-NP, 0.00152 µM	1.09 ± 0.027
KHOS-NP, 0.00457 µM	1.1 ± 0.017
KHOS-NP, 0.01372 µM	1.09 ± 0.016
KHOS-NP, 0.04115 µM	1.088 ± 0.0097
KHOS-NP, 0.1235 µM	1.11 ± 0.012
KHOS-NP, 0.3704 µM	1.09 ± 0.029
KHOS-NP, 1.111 µM	1.03 ± 0.048
KHOS-NP, 3.333 µM	1.02 ± 0.099
KHOS-NP, 10 µM	0.764 ± 0.022
RD-ES, 0.00017 µM	0.944 ± 0.029
RD-ES, 0.00051 µM	1.01 ± 0.011
RD-ES, 0.00152 µM	1.03 ± 0.021
RD-ES, 0.00457 µM	1 ± 0.035
RD-ES, 0.01372 µM	0.861 ± 0.08
RD-ES, 0.04115 µM	0.839 ± 0.085
RD-ES, 0.1235 µM	0.7218 ± 0.0041
RD-ES, 0.3704 µM	0.69 ± 0.058
RD-ES, 1.111 µM	0.616 ± 0.011
RD-ES, 3.333 µM	0.548 ± 0.064
RD-ES, 10 µM	0.36 ± 0.0092
SK-ES-1, 0.00017 µM	1.07 ± 0.073
SK-ES-1, 0.00051 µM	1.06 ± 0.029
SK-ES-1, 0.00152 µM	0.963 ± 0.024
SK-ES-1, 0.00457 µM	1 ± 0.083
SK-ES-1, 0.01372 µM	0.828 ± 0.032
SK-ES-1, 0.04115 µM	0.815 ± 0.038
SK-ES-1, 0.1235 µM	0.734 ± 0.037
SK-ES-1, 0.3704 µM	0.643 ± 0.066
SK-ES-1, 1.111 µM	0.59 ± 0.061
SK-ES-1, 3.333 µM	0.626 ± 0.12
SK-ES-1, 10 µM	0.522 ± 0.04
SK-LMS-1, 0.00017 µM	0.969 ± 0.015
SK-LMS-1, 0.00051 µM	1.01 ± 0.016
SK-LMS-1, 0.00152 µM	0.962 ± 0.034
SK-LMS-1, 0.00457 µM	0.976 ± 0.052
SK-LMS-1, 0.01372 µM	0.891 ± 0.05
SK-LMS-1, 0.04115 µM	0.881 ± 0.032
SK-LMS-1, 0.1235 µM	0.7368 ± 0.0021
SK-LMS-1, 0.3704 µM	0.743 ± 0.017
SK-LMS-1, 1.111 µM	0.665 ± 0.028
SK-LMS-1, 3.333 µM	0.7995 ± 0.0077
SK-LMS-1, 10 µM	0.674 ± 0.0026
SW684, 0.00017 µM	1.16 ± 0.038
SW684, 0.00051 µM	1.17 ± 0.041
SW684, 0.00152 µM	1.17 ± 0.087
SW684, 0.00457 µM	1.19 ± 0.074
SW684, 0.01372 µM	1.13 ± 0.029
SW684, 0.04115 µM	1.16 ± 0.044
SW684, 0.1235 µM	0.994 ± 0.027
SW684, 0.3704 µM	0.963 ± 0.1
SW684, 1.111 µM	0.835 ± 0.029
SW684, 3.333 µM	0.918 ± 0.1
SW684, 10 µM	0.788 ± 0.074
SW872, 0.00017 µM	1.06 ± 0.031
SW872, 0.00051 µM	1.05 ± 0.056
SW872, 0.00152 µM	1.06 ± 0.053
SW872, 0.00457 µM	1.03 ± 0.055
SW872, 0.01372 µM	0.941 ± 0.032
SW872, 0.04115 µM	0.892 ± 0.048
SW872, 0.1235 µM	0.808 ± 0.029
SW872, 0.3704 µM	0.654 ± 0.02
SW872, 1.111 µM	0.476 ± 0.01
SW872, 3.333 µM	0.398 ± 0.042
SW872, 10 µM	0.26 ± 0.025
SW982, 0.00017 µM	1.05 ± 0.046
SW982, 0.00051 µM	1.08 ± 0.034
SW982, 0.00152 µM	1.06 ± 0.03
SW982, 0.00457 µM	1.05 ± 0.015
SW982, 0.01372 µM	1.03 ± 0.015
SW982, 0.04115 µM	0.964 ± 0.1
SW982, 0.1235 µM	0.828 ± 0.11
SW982, 0.3704 µM	0.619 ± 0.12
SW982, 1.111 µM	0.484 ± 0.048
SW982, 3.333 µM	0.349 ± 0.043
SW982, 10 µM	0.218 ± 0.0067
VA-ES-BJ, 0.00017 µM	1.118 ± 0.009
VA-ES-BJ, 0.00051 µM	1.11 ± 0.033
VA-ES-BJ, 0.00152 µM	1.09 ± 0.047
VA-ES-BJ, 0.00457 µM	1.09 ± 0.013
VA-ES-BJ, 0.01372 µM	1.04 ± 0.059
VA-ES-BJ, 0.04115 µM	0.949 ± 0.11
VA-ES-BJ, 0.1235 µM	0.81 ± 0.13
VA-ES-BJ, 0.3704 µM	0.674 ± 0.071
VA-ES-BJ, 1.111 µM	0.462 ± 0.013
VA-ES-BJ, 3.333 µM	0.453 ± 0.064
VA-ES-BJ, 10 µM	0.348 ± 0.038
